The source of these data is ChEMBL document CHEMBL1201862, “PubChem BioAssay data set” (2004).

SMILES strings stand for the structures.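 1) Cells in 96-well plates. 2) Compound, 48 h, 5 concentrations. 3) Linear interpolation between surrounding doses. 4) Unreached endpoint = highest concentration. GI50 marks 50% less growth.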 Activity calls are given as the source filed them. Rule as the data show it: active = GI50 up to about 1.1 µM and inactive = higher. Some results are limits rather than exact numbers.

Among the test systems are EKVX; OVCAR-5; NCI-H23; SF-268; ACHN; PC-3; UACC-257; NCI-H522; CCRF-CEM; SF-295; BT-549; HCT-15; IGROV-1; HL-60; HCC 2998; Malme-3M; T47D; SR.
Holding throughout (test): inhibition of tumour cell growth, NCI panel, 48 h

For `CC(=O)C1C(=O)C(=O)N(c2cccc([N+](=O)[O-])c2)C1=O` (stereo not drawn), the GI50 with EKVX, in the experiment with OVCAR-5, in the experiment with NCI-H23, with SF-268, with ACHN and with PC-3 was > 100 µM (inactive) each time. For the same molecule, the GI50 with UACC-257 was > 100 µM (inactive); with NCI-H522 it was > 100 µM (inactive); with CCRF-CEM, > 100 µM (inactive); in the experiment on SF-295, > 100 µM (inactive); with BT-549, > 100 µM (inactive); with HCT-15, more than 100 µM. Also, the GI50 with IGROV-1, in the experiment on HL-60 and in the experiment on HCC 2998 was > 100 µM (inactive) throughout.
In the case of `COC(=O)CCCC(=O)NC1=C(Nc2ccc(OC)cc2)C(=O)c2ccccc2C1=O`, the GI50 with EKVX is 21.9 µM (inactive); in the experiment with OVCAR-5 it was 18.8 µM (inactive); in the experiment with NCI-H23, 20.4 µM (inactive); with SF-268 it was 45.6 µM (inactive); with ACHN it was 28 µM (inactive); with UACC-257, 18.1 µM (inactive). In addition, the GI50 with NCI-H522 is 37.5 µM (inactive); with CCRF-CEM, 20.8 µM (inactive); in the experiment with SF-295, 30.4 µM (inactive); in the experiment on Malme-3M it was 3.4 µM (inactive); with BT-549, 19.5 µM (inactive); in the experiment with HCT-15 it was 23.8 µM. In addition, the GI50 in the experiment with IGROV-1 was 18 µM (inactive); in the experiment on HL-60, 21.7 µM (inactive); in the experiment with HCC 2998 it was 20.6 µM (inactive); in the experiment on T47D, 41.3 µM (inactive); in the experiment with SR it was 33.1 µM (inactive).
As for `C=CCc1ccccc1CC1(OCC)OC(=O)c2ccccc21` (stereo not drawn), the GI50 in the experiment with EKVX was > 100 µM (inactive); in the experiment with OVCAR-5, > 100 µM (inactive); in the experiment on NCI-H23 it was 56.5 µM (inactive); in the experiment with SF-268 it was > 100 µM (inactive); in the experiment with ACHN, > 100 µM (inactive); in the experiment with PC-3, 83 µM (inactive). For the same molecule, the GI50 with UACC-257 is 60.7 µM (inactive); with NCI-H522, 67.8 µM (inactive); in the experiment with SF-295 it was > 100 µM (inactive); with BT-549, 96.8 µM (inactive); in the experiment on HCT-15, 42.3 µM; in the experiment on IGROV-1, > 100 µM (inactive). Further, the GI50 with HCC 2998 was > 100 µM (inactive); in the experiment on T47D, 76.9 µM (inactive).
On to `Cc1cn(C2CC(ON3C(=O)c4ccccc4C3=O)C(CO)O2)c(=O)[nH]c1=O` (stereo not drawn), for which the GI50 in the experiment with EKVX, with OVCAR-5, in the experiment on NCI-H23, in the experiment on SF-268, in the experiment on ACHN and with PC-3 was > 10 µM (inactive) throughout. Further, the GI50 in the experiment with UACC-257, in the experiment on NCI-H522, in the experiment on CCRF-CEM, in the experiment with SF-295, in the experiment with Malme-3M and in the experiment with BT-549 was > 10 µM (inactive) throughout. For the same molecule, the GI50 in the experiment on HCT-15 was more than 10 µM; with IGROV-1, > 10 µM (inactive); in the experiment with HL-60 it was > 10 µM (inactive); in the experiment on HCC 2998, > 10 µM (inactive); in the experiment with SR, > 10 µM (inactive).
As to `CCC(=O)C(C(C)/C=C/CCSc1ccccc1)C(O)CCCCCC(=O)OC` (stereo not drawn), the GI50 in the experiment with EKVX was > 100 µM (inactive); in the experiment on OVCAR-5, > 100 µM (inactive); in the experiment with NCI-H23, 77.3 µM (inactive); in the experiment on SF-268 it was > 100 µM (inactive); in the experiment with ACHN, > 100 µM (inactive); with PC-3, 84.1 µM (inactive). The GI50 was 58.9 µM (inactive) in the experiment with UACC-257; 89.3 µM (inactive) in the experiment on NCI-H522; 38.6 µM (inactive) in the experiment on CCRF-CEM; > 100 µM (inactive) with SF-295; > 100 µM (inactive) in the experiment on Malme-3M; > 100 µM (inactive) in the experiment on BT-549. The GI50 in the experiment with HCT-15 is 88.7 µM; in the experiment with IGROV-1, > 100 µM (inactive); with HCC 2998, > 100 µM (inactive); in the experiment on SR, 32.9 µM (inactive).
With `CC1(C)OC(=O)C(C#N)=C1C[n+]1ccccc1`, the GI50 in the experiment with EKVX, in the experiment with OVCAR-5, in the experiment on NCI-H23, in the experiment with SF-268, in the experiment on ACHN and with PC-3 was > 10 µM (inactive) throughout. For the same molecule, the GI50 in the experiment on UACC-257 is > 10 µM (inactive); in the experiment on NCI-H522 it was > 10 µM (inactive); with CCRF-CEM it was > 10 µM (inactive); in the experiment with SF-295, > 10 µM (inactive); in the experiment on Malme-3M, > 10 µM (inactive); in the experiment on HCT-15 it was more than 10 µM. The GI50 in the experiment on IGROV-1, in the experiment on HL-60, in the experiment on HCC 2998, in the experiment with T47D and in the experiment on SR was > 10 µM (inactive) in each case.
Take `CC(C)(C)OC(=O)Nc1nnc(S(N)(=O)=O)s1`: the GI50 in the experiment on EKVX, in the experiment on OVCAR-5, in the experiment on NCI-H23, with SF-268, in the experiment with ACHN and in the experiment with UACC-257 was > 100 µM (inactive) in each case. Besides, the GI50 was > 100 µM (inactive) in the experiment on NCI-H522; > 100 µM (inactive) with CCRF-CEM; > 100 µM (inactive) in the experiment on SF-295; > 100 µM (inactive) in the experiment on Malme-3M; > 100 µM (inactive) with BT-549; more than 100 µM in the experiment with HCT-15. Besides, the GI50 with HL-60, with HCC 2998, with T47D and in the experiment on SR was > 100 µM (inactive) each time.
Turning to `S=C(Nc1ccc(/N=N/c2ccccc2)cc1)SCc1ccccc1`, the GI50 with EKVX was 24.8 µM (inactive); in the experiment on NCI-H23, 16.4 µM (inactive); with SF-268, 17 µM (inactive); in the experiment on ACHN, 17.5 µM (inactive); in the experiment on PC-3, 15 µM (inactive); in the experiment with UACC-257, 16.3 µM (inactive). The GI50 was 16.9 µM (inactive) in the experiment on NCI-H522; 15.9 µM (inactive) with CCRF-CEM; 17.9 µM (inactive) in the experiment on SF-295; 11 µM (inactive) in the experiment on Malme-3M; 18.3 µM (inactive) in the experiment on BT-549; 15.1 µM with HCT-15. The values for the GI50 with IGROV-1 and with T47D were 17.7 µM (inactive) and 28.3 µM (inactive), respectively.
Turning to `CN1Cc2ccccc2/C=C\c2ccccc21`, the GI50 with EKVX was 30.8 µM (inactive); with NCI-H23, 62.1 µM (inactive); in the experiment with SF-268 it was 39.4 µM (inactive); with ACHN, > 100 µM (inactive); in the experiment on PC-3, 64 µM (inactive); in the experiment on UACC-257, > 100 µM (inactive). In addition, the GI50 with NCI-H522 is 37.5 µM (inactive); in the experiment on CCRF-CEM, 47.3 µM (inactive); in the experiment with SF-295 it was 62.7 µM (inactive); in the experiment on Malme-3M, 51.4 µM (inactive); with BT-549, 70 µM (inactive); in the experiment with HCT-15, 52.4 µM. Further, the GI50 with IGROV-1 was > 100 µM (inactive); with HCC 2998, 47.9 µM (inactive); with T47D, 50.5 µM (inactive).
In the case of `O=C1Nc2nnc(S)n2NC12c1ccccc1-c1ccccc12`, the GI50 is > 100 µM (inactive) in the experiment on EKVX; > 100 µM (inactive) with OVCAR-5; > 100 µM (inactive) in the experiment with NCI-H23; 65.2 µM (inactive) in the experiment on SF-268; > 100 µM (inactive) in the experiment on ACHN; > 100 µM (inactive) with PC-3. The GI50 with UACC-257 was 17.2 µM (inactive); in the experiment with NCI-H522, > 100 µM (inactive); in the experiment with SF-295, > 100 µM (inactive); in the experiment on Malme-3M it was > 100 µM (inactive); in the experiment on BT-549 it was > 100 µM (inactive); with HCT-15 it was 97.3 µM. Moreover, the GI50 was 96.6 µM (inactive) in the experiment on IGROV-1, > 100 µM (inactive) in the experiment with HL-60, > 100 µM (inactive) in the experiment with HCC 2998 and 33 µM (inactive) with SR.
For the molecule `O=C(Nc1ccc(Cl)cc1Cl)c1cc2nc3ccccc3c(=O)n2c2ccccc12`, the GI50 in the experiment on EKVX, in the experiment on OVCAR-5, in the experiment with NCI-H23, with SF-268, in the experiment on PC-3 and with UACC-257 was > 10 µM (inactive) in each case. For the same molecule, the GI50 with NCI-H522 was > 10 µM (inactive); with CCRF-CEM, > 10 µM (inactive); with SF-295, > 10 µM (inactive); with Malme-3M, > 10 µM (inactive); with BT-549, > 10 µM (inactive); in the experiment on HCT-15 it was more than 10 µM. For the same molecule, the GI50 in the experiment with IGROV-1, with HL-60, with HCC 2998 and in the experiment with T47D was > 10 µM (inactive) in each case.
As for `CN1C(=O)CC2CCC(=O)N2c2cccnc21` (stereo not drawn), the GI50 in the experiment with EKVX, in the experiment with NCI-H23, in the experiment on SF-268, with ACHN, in the experiment on UACC-257 and in the experiment on NCI-H522 was > 100 µM (inactive) throughout. The GI50 with CCRF-CEM is > 100 µM (inactive); with SF-295, > 100 µM (inactive); in the experiment on Malme-3M it was > 100 µM (inactive); with BT-549 it was > 100 µM (inactive); with HCT-15, more than 100 µM; with IGROV-1, > 100 µM (inactive). For the same molecule, the GI50 with HL-60, in the experiment on HCC 2998, in the experiment with T47D and in the experiment on SR was > 100 µM (inactive) in each case.
As for `CC1(C)C2CCC1(C)C(N/C(=C(/C(Cl)=C(Cl)Cl)[N+](=O)[O-])n1nnc3ccccc31)C2` (stereo not drawn), the GI50 with EKVX was 32.4 µM (inactive); in the experiment with OVCAR-5, 29.2 µM (inactive); with NCI-H23, 22.4 µM (inactive); in the experiment with SF-268, 17.6 µM (inactive); in the experiment on ACHN it was 20.9 µM (inactive); in the experiment with PC-3, 21.1 µM (inactive). Moreover, the GI50 in the experiment with UACC-257 was 38.6 µM (inactive); with CCRF-CEM it was 21 µM (inactive); in the experiment on SF-295 it was 24.3 µM (inactive); in the experiment on Malme-3M, 19.3 µM (inactive); with BT-549, 22.2 µM (inactive); in the experiment with HCT-15 it was 27.7 µM. The results for the GI50 with HCC 2998 and with T47D were 40.6 µM (inactive) and 32.7 µM (inactive), respectively.
